Test results taken from US6821986B2, “Amino acid derivatives and their use as medicines” (Societe de Conseils de Recherchet et E'Applications …, priority 2000, dated 2004).

How the values were obtained:
[1] = molecular target: T1, neuronal constitutive NO synthase (Rattus norvegicus, UniProt P29476); test: Effects on neuronal constitutive NO synthase of a rat's cerebellum ([3H]L-arginine to [3H]L-citrulline conversion); assay type: biochemical; settings: rat cerebellum homogenate, conversion of [3H]L-arginine to [3H]L-citrulline, 15 min
T1 construct: The reaction is initiated by adding 50 μl of homogenate; from tissue; host or cells: cerebellum of Sprague-Dawley rats (homogenate, centrifuged at 21000 g)
Experimental: Study of the Effects on Neuronal Constitutive NO Synthase of a Rat's Cerebellum
The inhibitory activity of the products of the invention is determined by measuring their effects on the conversion by NO synthase of [^3H]L-arginine to [^3H]L-citrulline according to the modified method of Bredt and Snyder (Proc. Natl. Acad. Sci. USA, (1990) 87: 682-685). The cerebellums of Sprague-Dawley rats (300 g-Charles River) are rapidly removed, dissected at 4° C. and homogenized in a volume of extraction buffer (HEPES 50 mM, EDTA 1 mM, pH 7.4, pepstatin A […], leupeptin […]). The homogenates are then centrifuged at 21000 g for 15 min at 4° C. Dosage is carried out in glass test tubes in which 100 μl of incubation buffer containing 100 mM of HEPES (pH 7.4), 2 mM of EDTA, 2.5 mM of CaCl2, 2 mM of dithiotreitol, 2 mM of reduced NADPH and 10 μg/ml of calmodulin are distributed. 25 μl of a solution containing 100 nM of [^3H]L-arginine (Specific activity: 56.4 Ci/mmole, Amersham) and 40 μM of non-radioactive L-arginine is added. The reaction is initiated by adding 50 μl of homogenate, the final volume being 200 μl (the missing 25 μl are either water or the tested product). […] After passing the samples through a 1 ml column of DOWEX resin, the radioactivity is quantified by a liquid scintillation spectrometer.

HT-22 cells = test: Protection of HT-22 cells from oxidation stress induced by glutamate (MTT viability); assay type: cell-based; settings: Mus musculus, glutamate 5 mM, cell viability after 24 h by MTT
Experimental: Study of the Effects on the Oxidation Stress Induced by Glutamate on Cells in Culture (HT-22).
The inhibitory activity of the products of the invention is determined by measuring their ability to protect the cells of a mouse hippocampal line (HT-22) from an oxidation stress caused by glutamate. The biosynthesis of glutathione, an essential element of cell detoxification of free radicals, requires the active transport of cystine to the interior of the cell. The glutamate by opposing the penetration of cystine causes a reduction in the level of glutathione which leads to the death of the cell due to oxidation stress (Demerlé-Pallardy, C. et al., J. Neurochem. (2000) 74, 2079-2086; Murphy, T. H. et al., Neuron, (1989) 2: 1547-1558). The cells are cultured at 37° C. in a DMEM medium with 10% of foetal calf serum added to it. The tests are carried out in 96-well plates containing 5000 cells per well. The glutamate (5 mM) is added to the medium containing or not containing the products to be tested. The cell viability is tested after 24 h by the MTT method (Hansen, M. B. et al., J Immunol. Methods (1989), 119, 203-210). The ability of the compounds to protect the cells from the toxic action of the glutamate is estimated in EC50, calculated relative to the viability of cells which have not been subjected to the action of glutamate considered as 100% viability.

| Structure (SMILES) | IC50 [1] | EC50 (HT-22 cells) |
| --- | --- | --- |
| CN1CCc2cc(NC(=O)[C@@H](N)CCCNC(=N)N[N+](=O)[O-])ccc21 [Example 2, (2S)-2-amino-5-{[imino(2-oxido-2-oxohydrazino)methyl]amino}-N-(1-methyl-2,3-dihydro-1H-indol-5-yl)pentanamide] | < 10 µM | < 25 µM |
| N=C(NCCC[C@H](N)C(=O)Nc1ccc(Nc2ccccc2)cc1)N[N+](=O)[O-] [Example 1, (2S)-2-amino-N-(4-anilinophenyl)-5-{[imino(2-oxido-2-oxohydrazino)methyl]amino}pentanamide] | < 10 µM | < 25 µM |
